Data as given in patent US20200369728A1, “PEPTIDOMIMETIC MACROCYCLES AND USES THEREOF” (Aileron Therapeutics, Inc., priority 2015, published 2020).
Bridge positions count the residues as written; N and C are the ends. Square brackets hold non-standard residues; d marks the D form. Peptide text beside a SMILES is read from it. Phe(4-COOH) = N[C@@H](Cc1ccc(C(=O)O)cc1)C(=O)O; 2Nal = N[C@@H](Cc1ccc2ccccc2c1)C(=O)O; R8 = C=CCCCCCC[C@@](C)(N)C(=O)O; Cba = N[C@@H](CC1CCC1)C(=O)O; S5 = C=CCCC[C@](C)(N)C(=O)O; Nle = CCCC[C@H](N)C(=O)O

What was measured:
Caspase 3 = Caspase 3 detection assay in SJSA1 cells; assay type: cell-based; conditions: SJSA1, 48 h, Caspase 3 activation over DMSO-treated cells
SJSA-1 cells = test: Cell lysis by peptidomimetic macrocycles (LDH release); assay type: cell-based; conditions: SJSA-1, 1 h
In short: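 Membrane lysis measured as supernatant LDH after a 1 h, 37 °C exposure of SJSA-1 cells, held in RPMI with 1% FBS, to macrocycles at final 6.25-50 μM with 0.5% DMSO. Lytic references were 10 μM melittin and 1% Triton X-100; DMSO alone served as non-lytic control.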

SMILES	caspase 0.3 μM (Caspase 3)	caspase 3 μM (Caspase 3)	caspase 10 μM (Caspase 3)	caspase 30 μM (Caspase 3)	6.25 μM % Lysed cells (1 h LDH) (SJSA-1 cells) [%]	25 μM % Lysed cells (1 h LDH) (SJSA-1 cells) [%]	50 μM % Lysed cells (1 h LDH) (SJSA-1 cells) [%]	caspase 1 μM (Caspase 3; 1 μM)
CC[C@H](C)[C@H](NC(=O)[C@H](C)NC(=O)[C@H](C)NC(=O)[C@]1(C)CCCC=CCCCCCC[C@@](C)(NC(=O)[C@H](Cc2ccccc2)NC(=O)[C@@H](NC(=O)[C@H](CC(C)C)NC(C)=O)[C@@H](C)O)C(=O)N[C@@H](C)C(=O)N[C@@H](Cc2ccc(O)cc2)C(=O)N[C@@H](Cc2c[nH]c3ccccc23)C(=O)N[C@@H](C)C(=O)N[C@@H](C)C(=O)N[C@@H](CC(C)C)C(=O)N1)C(=O)N[C@@H](C(N)=O)C(C)C (single isomer, unassigned) [compound 77]	1	2	19	23	−2	1	−1	
CC(=O)N[C@@H](CC(C)C)C(=O)N[C@H](C(=O)N[C@@H](Cc1ccccc1)C(=O)N[C@]1(C)CCCCCCC=CCCC[C@@](C)(C(=O)N[C@@H](CO)C(=O)N[C@@H](C)C(=O)N[C@@H](C)C(N)=O)NC(=O)[C@H](C2CCCC2)NC(=O)[C@H](CCC(N)=O)NC(=O)[C@H](C)NC(=O)[C@H](Cc2c[nH]c3ccccc23)NC(=O)[C@H](Cc2ccc(O)cc2)NC(=O)[C@H](CCC(=O)O)NC1=O)[C@@H](C)O (single isomer, unassigned) [compound 149]	1	2	4	10	6	7	21	
CC(=O)N[C@@H](CC(C)C)C(=O)N[C@H](C(=O)N[C@@H](Cc1ccccc1)C(=O)N[C@]1(C)CCCCCCC=CCCC[C@@](C)(C(=O)N[C@@H](C)C(=O)N[C@@H](Cc2c[nH]cn2)C(=O)N[C@@H](Cc2ccccc2)C(=O)N[C@@H](C)C(N)=O)NC(=O)[C@H](CC(C)C)NC(=O)[C@H](C)NC(=O)[C@H](C)NC(=O)[C@H](Cc2c[nH]c3ccccc23)NC(=O)[C@H](Cc2ccc(O)cc2)NC(=O)[C@H](C)NC1=O)[C@@H](C)O [compound 204] (Ac-LTF[R8]AYWAAL[S5]AHFA-NH2; staple 4-11)	1	4	10	10	4	2	0	
CCCC[C@H](NC(=O)[C@H](C)NC(=O)[C@H](CO)NC(=O)[C@]1(C)CCCC=CCCCCCC[C@@](C)(NC(=O)[C@H](Cc2ccccc2)NC(=O)[C@@H](NC(=O)[C@H](CC(C)C)NC(C)=O)[C@@H](C)O)C(=O)N[C@@H](CCC(=O)O)C(=O)N[C@@H](Cc2ccc(C(=O)O)cc2)C(=O)N[C@@H](Cc2c[nH]c3ccccc23)C(=O)N[C@@H](C)C(=O)N[C@@H](CCC(N)=O)C(=O)N[C@@H](CC2CCC2)C(=O)N1)C(=O)N[C@@H](C)C(N)=O [compound 244] (Ac-LTF[R8]E[Phe(4-COOH)]WAQ[Cba][S5]SA[Nle]A-NH2; staple 4-11)	1	2	7	17	0	0	4	
CC[C@H](C)[C@H](NC(=O)[C@H](C)NC(=O)[C@H](C)NC(=O)[C@]1(C)CCCC=CCCCCCC[C@@](C)(NC(=O)[C@H](Cc2ccccc2)NC(=O)[C@@H](NC(=O)[C@H](CC(C)C)NC(C)=O)[C@@H](C)O)C(=O)N[C@@H](C)C(=O)N[C@@H](Cc2c[nH]cn2)C(=O)N[C@@H](Cc2c[nH]c3ccccc23)C(=O)N[C@@H](C)C(=O)N[C@@H](CCC(N)=O)C(=O)N[C@@H](CC(C)C)C(=O)N1)C(=O)N[C@H](C)C(N)=O [compound 170] (Ac-LTF[R8]AHWAQL[S5]AAI[dA]-NH2; staple 4-11)	1	1	16	20	2	1	−1	
CC(=O)N[C@@H](CC(C)C)C(=O)N[C@H](C(=O)N[C@@H](Cc1ccccc1)C(=O)N[C@]1(C)CCCCCCC=CCCC[C@@](C)(C(=O)N[C@@H](CO)C(=O)N[C@@H](C)C(=O)N[C@@H](C)C(N)=O)NC(=O)[C@H](CC2CCC2)NC(=O)[C@H](CCC(N)=O)NC(=O)[C@H](C)NC(=O)[C@H](Cc2ccc3ccccc3c2)NC(=O)[C@H](Cc2ccc(O)cc2)NC(=O)[C@H](CCC(=O)O)NC1=O)[C@@H](C)O [compound 254] (Ac-LTF[R8]EY[2Nal]AQ[Cba][S5]SAA-NH2; staple 4-11)	1	7	14	22	11	60	75	3
CC(=O)N[C@@H](CC(C)C)C(=O)N[C@H](C(=O)N[C@@H](Cc1ccccc1)C(=O)N[C@]1(C)CCCCCCC=CCCC[C@@](C)(C(=O)N[C@@H](CO)C(=O)N[C@H](C(=O)NCC(N)=O)C(C)C)NC(=O)[C@H](CC(C)C)NC(=O)[C@H](CCC(N)=O)NC(=O)[C@H](C)NC(=O)[C@H](Cc2c[nH]c3ccccc23)NC(=O)[C@H](Cc2ccc(O)cc2)NC(=O)[C@H](C)NC1=O)[C@@H](C)O [compound 123] (Ac-LTF[R8]AYWAQL[S5]SVG-NH2; staple 4-11)	1	1	6	14	−2	5	3	
CC(=O)N[C@@H](CC(C)C)C(=O)N[C@H](C(=O)N[C@@H](Cc1ccccc1)C(=O)N[C@]1(C)CCCCCCC=CCCC[C@@](C)(C(=O)N[C@@H](C)C(=O)N[C@@H](C)C(=O)N[C@H](C(=O)N[C@H](C)C(N)=O)C(C)C)NC(=O)[C@H](CC(C)C)NC(=O)[C@H](CCC(N)=O)NC(=O)[C@H](C)NC(=O)[C@H](Cc2c[nH]c3ccccc23)NC(=O)[C@H](Cc2ccc(O)cc2)NC(=O)[C@H](CCC(=O)O)NC1=O)[C@@H](C)O (single isomer, unassigned) [compound 221]	1	3	6	12	3	3	11	
CC(=O)N[C@@H](CC(C)C)C(=O)N[C@H](C(=O)N[C@@H](Cc1ccccc1)C(=O)N[C@]1(C)CCCCCCC=CCCC[C@@](C)(C(=O)N[C@@H](CO)C(=O)N[C@H](C(=O)N[C@@H](CO)C(N)=O)C(C)C)NC(=O)[C@H](CC(C)C)NC(=O)[C@H](CCC(N)=O)NC(=O)[C@H](C)NC(=O)[C@H](Cc2c[nH]c3ccccc23)NC(=O)[C@H](Cc2ccc(O)cc2)NC(=O)[C@H](C(C)C)NC1=O)[C@@H](C)O (single isomer, unassigned) [compound 142]	1	2	15	20	1	1	3	
CC[C@H](C)[C@H](NC(=O)[C@H](C)NC(=O)[C@H](C)NC(=O)[C@]1(C)CCCC=CCCCCCC[C@@](C)(NC(=O)[C@H](Cc2ccccc2)NC(=O)[C@@H](NC(=O)[C@H](CC(C)C)NC(C)=O)[C@@H](C)O)C(=O)N[C@@H](CCC(=O)O)C(=O)N[C@@H](Cc2ccc(O)cc2)C(=O)N[C@@H](Cc2c[nH]c3ccccc23)C(=O)N[C@@H](C)C(=O)N[C@@H](CCC(N)=O)C(=O)N[C@@H](CC2CCC2)C(=O)N1)C(=O)N[C@H](C)C(N)=O [compound 247] (Ac-LTF[R8]EYWAQ[Cba][S5]AAI[dA]-NH2; staple 4-11)	1	3	11	24	0	0	4	
CSCC[C@H](NC(=O)[C@H](C)NC(=O)[C@H](C)NC(=O)[C@]1(C)CCCC=CCCCCCC[C@@](C)(NC(=O)[C@H](Cc2ccccc2)NC(=O)[C@@H](NC(=O)[C@H](CC(C)C)NC(C)=O)[C@@H](C)O)C(=O)N[C@@H](C)C(=O)N[C@@H](Cc2ccc(O)cc2)C(=O)N[C@@H](Cc2c[nH]c3ccccc23)C(=O)N[C@@H](C)C(=O)N[C@@H](C)C(=O)N[C@@H](CC(C)C)C(=O)N1)C(=O)N[C@H](C)C(N)=O [compound 72] (Ac-LTF[R8]AYWAAL[S5]AAM[dA]-NH2; staple 4-11)	1	1	4	10	2	0	3	
CC(=O)N[C@@H](CC(C)C)C(=O)N[C@H](C(=O)N[C@@H](Cc1ccccc1)C(=O)N[C@]1(C)CCCCCCC=CCCC[C@@](C)(C(=O)N[C@@H](CO)C(=O)N[C@@H](C)C(=O)N[C@@H](C)C(N)=O)NC(=O)[C@H](CC2CCC2)NC(=O)[C@H](CCC(N)=O)NC(=O)[C@H](C)NC(=O)[C@H](Cc2c[nH]c3ccccc23)NC(=O)[C@H](Cc2ccc(O)cc2)NC(=O)[C@H](CCC(=O)O)NC1=O)[C@@H](C)O (single isomer, unassigned) [compound 153]	2	10	15	20	4	2	3	
